According to PubChem BioAssay AID1645866 (Buhrlage Lab, Dana-Farber Cancer Institute and Novartis …, 2021):
The source made the active and inactive calls.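 The calls were made as follows: active = in confirmatory dose-response testing, peak deubiquitinase inhibition of 30% or more; inactive = the rest.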

These compounds were tested against Ubiquitin carboxyl-terminal hydrolase 28 (Homo sapiens) (UniProt Q96RU2) (assay: Concentration-response biochemical assay confirming initial hits as inhibitors of ubiquitin-specific protease 28 (AID 1645866)). Details: purified USP28, ubiquitin-rhodamine fluorescence, 30 min.
Chain of Ubiquitin carboxyl-terminal hydrolase 28 (Homo sapiens) (Q96RU2 whole entry, looked up): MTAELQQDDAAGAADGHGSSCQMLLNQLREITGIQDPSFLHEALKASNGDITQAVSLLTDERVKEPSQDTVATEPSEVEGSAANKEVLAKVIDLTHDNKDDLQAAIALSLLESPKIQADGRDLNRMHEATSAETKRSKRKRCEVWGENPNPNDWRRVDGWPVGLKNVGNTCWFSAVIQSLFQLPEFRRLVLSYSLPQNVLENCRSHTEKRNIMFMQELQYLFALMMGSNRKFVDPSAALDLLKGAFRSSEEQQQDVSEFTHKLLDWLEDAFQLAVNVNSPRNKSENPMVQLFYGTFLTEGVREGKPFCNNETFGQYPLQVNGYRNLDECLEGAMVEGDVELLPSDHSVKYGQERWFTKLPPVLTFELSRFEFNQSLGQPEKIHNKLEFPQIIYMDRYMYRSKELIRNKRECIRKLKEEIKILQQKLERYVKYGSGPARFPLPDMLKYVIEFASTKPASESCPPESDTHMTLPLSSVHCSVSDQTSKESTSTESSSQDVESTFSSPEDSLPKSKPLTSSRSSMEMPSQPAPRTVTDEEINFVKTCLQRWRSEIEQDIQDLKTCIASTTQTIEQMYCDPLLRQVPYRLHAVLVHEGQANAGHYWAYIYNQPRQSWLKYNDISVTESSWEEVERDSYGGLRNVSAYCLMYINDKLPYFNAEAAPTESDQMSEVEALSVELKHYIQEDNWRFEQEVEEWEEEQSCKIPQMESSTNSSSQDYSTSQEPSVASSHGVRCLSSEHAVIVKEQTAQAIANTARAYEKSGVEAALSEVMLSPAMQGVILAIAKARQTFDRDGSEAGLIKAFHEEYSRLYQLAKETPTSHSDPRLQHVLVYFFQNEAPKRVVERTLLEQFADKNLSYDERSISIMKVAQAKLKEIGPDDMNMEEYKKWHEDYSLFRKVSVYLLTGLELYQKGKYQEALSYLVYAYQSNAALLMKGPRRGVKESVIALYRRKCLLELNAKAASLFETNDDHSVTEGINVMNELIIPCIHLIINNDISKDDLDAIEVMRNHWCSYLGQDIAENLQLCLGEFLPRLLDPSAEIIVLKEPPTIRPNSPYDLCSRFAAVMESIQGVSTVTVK

IC50, active:
O=C(Nc1cccc(C(F)(F)F)c1)c1cc2c(s1)-c1ccccc1OC2 6.78 µM, Cc1cc(C#N)c2c(C)ccc(C(C)C)cc1-2 21.4 µM, COc1ccc(S(=O)(=O)N2CCC3(CC2)OC(=O)Nc2ccccc23)cc1 43.4 µM, O=C(O)c1ccc(C2Cc3c([nH]c(=O)[nH]c3=O)O2)cc1 (stereo not drawn) 6.53 µM, Cc1c(OCC(=O)Nc2nc3ccccc3[nH]2)ccc2c3c(c(=O)oc12)CCC3 0.541 µM, O=C(Cn1c(=O)nc(-c2ccccc2)c2ccccc21)NCc1ccc2c(c1)OCO2 27.9 µM, CSc1nccc(-c2ccc(F)cc2)c1C#N 46.2 µM, O=C1COc2ccc(NC(=O)c3cnn(Cc4ccccc4)c3)cc2N1 25.4 µM, CC(C)CCN1C(=O)C2C(C(=O)Nc3ccc(Oc4ccccc4)cc3)C3C=CC2(O3)C1C(=O)NC1CCCCC1 (stereo not drawn) 37.5 µM, Cc1cc(C(=O)Nc2cc(C)n(Cc3ccc(Cl)cc3)n2)no1 13.4 µM, O=C(/C=C/c1c(F)cccc1Cl)N1CCc2ccccc2C1 36.3 µM, Cc1cccc(NC(=O)CSc2ncnc3c2sc2nc(CC(C)C)c4c(c23)CCC4)c1 6.42 µM, O=C(Nc1ccc(NS(=O)(=O)c2ccc3c4c(cccc24)CC3)cc1)c1ccccc1 37.7 µM, CC(C)C(=O)Nc1ccc(N2CCN(Cc3ccc(F)cc3)C2=O)nc1 19.3 µM, O=C(NCc1ccc2c(c1)OCO2)c1[nH]nc2c1COc1ccccc1-2 7.75 µM, Cc1ccc(S(=O)(=O)N(C)C)cc1NC(=O)Cc1ccc(Cl)c(Cl)c1 0.274 µM, O=C1c2c(O)cccc2C2(Oc3cccc4cccc(c34)O2)C2OC12 (stereo not drawn) 20.1 µM, Cn1cc(-c2cnc(-c3cccc(F)c3)nc2)cc1C(=O)NCc1cccnc1 36.8 µM, Cc1ccc(NC(=O)c2ccc(N3CCOCC3)nn2)cc1F 45.6 µM, COc1ccc(S(=O)(=O)N(C)Cc2cccs2)cc1OC 17.4 µM, CC1(C(=O)NCc2ccccc2)Cn2c(cc3ccccc32)C(=O)N1Cc1ccccc1 (stereo not drawn) 48.7 µM, N#Cc1cccc(NC(=O)Nc2cccn(Cc3ccccc3F)c2=O)c1 4.02 µM, Cc1cc(C)c(NC(=O)CSc2nc3nccnc3c(=O)n2Cc2ccccc2Cl)c(C)c1 3.33 µM, CC(C)Oc1ccc(C(=O)Nc2cccc(S(=O)(=O)N3CCCC3)c2)cc1 10.7 µM, CCOc1ccc2[nH]c(=O)c(CN(C(=O)c3cccs3)C3CCCC3)cc2c1 14.1 µM, CSc1ncc(C(=O)NC(C)c2ccccc2)c(-c2ccccc2)n1 (stereo not drawn) 18.5 µM, Cc1cc2c(cc1C)NC(CC(=O)Nc1ccc(O)cc1)C(=O)N2 (stereo not drawn) 25 µM, CC(C)Cc1nc2sc3c(NCc4ccccc4)ncnc3c2c2c1COC(C)(C)C2 6.15 µM, O=c1c2cnc(N3CCOCC3)nc2ccn1CCc1ccccc1 15.2 µM, Cc1cccc(NC(=O)CSc2nnc(-c3n[nH]c4c3CCC4)n2N)c1 26.6 µM, COc1cccc2c1OCC(C(=O)NCc1ccc(F)cc1)=C2 21.6 µM, C/C=C1/C2=CCCN3C(=O)O[C@H]([C@H]1O)[C@H]23 2.94 µM, Oc1ccc(-c2nc3ccc(Cl)cn3c2NC2CCCCC2)cc1 23 µM, Cc1ccc(-c2cn(CC(=O)N3CCN(c4ccccn4)CC3)c(=O)o2)cc1 16.5 µM, CSc1ccccc1C(=O)Nc1sc2c(c1C(N)=O)CCC(C)C2 (stereo not drawn) 2.78 µM, O=C(OCc1ccc(Br)cc1)c1ccc2ccccc2n1 1 µM, O=C(COc1cccc2ccc(N3CCC(Cc4ccccc4)CC3)nc12)NCc1ccc(F)cc1 20.7 µM, Cn1c(=O)c2cc(C(=O)Nc3ccc(F)cc3)cnc2n(C)c1=O 20.8 µM, O=C(COc1cccc2c1CCN(Cc1cccnc1)C2=O)Nc1ccc2c(c1)OCCO2 1.34 µM, N#Cc1ccc(NC(=O)Nc2cccn(Cc3ccccc3F)c2=O)cc1 0.235 µM, O=C(NCc1ccccc1Cl)c1ccc2cn[nH]c2c1 10.1 µM, CCOc1ccc2[nH]c3c(=O)n(CCc4ccc(OC)cc4)cnc3c2c1 5.81 µM, Cc1ccc(CNC(=O)Cn2cnc3c(cnn3-c3cccc(Cl)c3)c2=O)cc1 2.58 µM, COc1cc(Cl)ccc1C(=O)Nc1cccc(-n2cnnn2)c1C 11.2 µM, Cc1nn(CC(=O)Nc2ccc(Br)c3cccnc23)c(=O)c2ccccc12 21.5 µM, CCCC(=O)c1c[nH]c(C(=O)NCc2ccc(F)cc2)c1 18.7 µM, O=C(Cn1c(=O)n(-c2ccccc2)c(=O)c2ccc(C(=O)NCc3ccc4c(c3)OCO4)cc21)NCCC1=CCCCC1 15.7 µM, O=C(Nc1cccc(OC(=O)c2ccc(Cl)cc2)c1)c1ccc(Cl)cc1 41.2 µM, COc1cc2c(cc1OC)-c1cc(Nc3ccc(Br)cc3)nc(=O)n1CC2 1.84 µM, Cc1cc(C)n(-c2ccc(C(=O)NCc3ccc(F)cc3)cn2)n1 19.7 µM, Cc1c(-c2nc(-c3ccccc3Cl)no2)nnn1-c1cccc(F)c1 14.2 µM, CC(=O)Nc1ccc(S(=O)(=O)Nc2ccc(Nc3ccc(-n4cccn4)nn3)cc2)cc1 32.8 µM, CCC(C)NC(=O)Cn1c(=O)n(-c2ccccc2)c(=O)c2ccc(C(=O)NCc3ccco3)cc21 (stereo not drawn) 37.9 µM, COCCCNC(=O)c1ccc(Cn2c(=O)c3ccccc3n(CC(=O)NC3CCCCC3)c2=O)cc1 23.5 µM, Cc1cccc(C(=O)Nc2ccccc2Sc2nc3c(c(=O)n(C)c(=O)n3C)n2C)c1 42.6 µM, O=C(Nc1cccn(Cc2c(Cl)cccc2Cl)c1=O)c1ccccc1[N+](=O)[O-] 4.79 µM

IC50, inactive:
COc1cccc(CNC(=O)c2ccc3c(c2)NC(=O)C2CCCN32)c1OC (stereo not drawn) > 50 µM, C/C1=C/C=C/[C@H](C)[C@H](O)[C@@H](C)[C@@H](O)[C@@H](C)[C@H](O)[C@H](C)[C@@H](O)[C@@H](C)/C=C(/C)C(=O)c2c(O)c(C)cc3c2C(=O)C=C(NC1=O)C3=O > 50 µM, CCc1nc(-c2cc(C(=O)N3CCOCC3)c3ccccn23)cs1 > 50 µM, Cn1c(C(=O)NCc2ccccn2)cc2c(=O)[nH]c3ccccc3c21 > 50 µM, CC(C)(C)c1cc(C[C@@H]2C[C@H](NC(=O)N3CCOCC3)C2(C)C)no1 > 50 µM, CN1CCN(c2ccc3nc(-c4ccccc4)c(-c4ccccc4)nc3c2)CC1 > 50 µM, Cn1cc2cccc(NC(=O)c3ccc(F)cc3)c2n1 > 50 µM, NS(=O)(=O)c1cccc(NC(=O)CN2CCCc3ccccc32)c1 > 50 µM, O=C(Nc1cc(F)c2nc(N3CCCC3)ccc2c1)c1ccco1 > 50 µM, COc1cccc2c1C(=O)c1ccc3c(c1C2=O)C(=O)CC(C)(O)C3 (stereo not drawn) > 50 µM, Cc1ccc2c(Nc3ccc(CC(=O)O)cc3)c(C(=O)N3CCCC3)cnc2n1 > 50 µM, CSc1nc2ncc3c(=O)n(CCc4ccccc4)ccc3n2n1 > 50 µM, CC1=C[C@H]2N(c3ccc(C)cc31)[C@H](C(=O)c1cccs1)[C@@H](C(=O)c1ccc(F)cc1)[C@]21C(=O)Nc2ccccc21 > 50 µM, CNc1nc2c(c(=O)n1C)CN(C(=O)Nc1cccc3ccccc13)CC2 > 50 µM, Cc1cc(O)c(=O)cc2c1C[C@H]1CC(C)(C)/C=C/C[C@@]3(C)Oc4cc(=O)c(O)cc(C)c4C[C@@H]3C[C@H](O)[C@]1(C)O2 > 50 µM, O=c1ncn(Cc2ccc3c(c2)OCO3)cc1-c1ncc(C(F)(F)F)cc1Cl > 50 µM, O=C(Nc1ccc(Br)cn1)c1nc2ccccc2nc1N1CCCCC1 > 50 µM
